Patent publication US20060211710A1, “Substituted aryl 1,4-pyrazine derivatives” (Pfizer Inc, priority 2005, published 2006)

Biological target: T1, CRF1 receptor (Rattus norvegicus, UniProt P35353)
T1 construct: from tissue; host or cells: rat frontal cortex membranes
T1 sequence (P35353 24-415): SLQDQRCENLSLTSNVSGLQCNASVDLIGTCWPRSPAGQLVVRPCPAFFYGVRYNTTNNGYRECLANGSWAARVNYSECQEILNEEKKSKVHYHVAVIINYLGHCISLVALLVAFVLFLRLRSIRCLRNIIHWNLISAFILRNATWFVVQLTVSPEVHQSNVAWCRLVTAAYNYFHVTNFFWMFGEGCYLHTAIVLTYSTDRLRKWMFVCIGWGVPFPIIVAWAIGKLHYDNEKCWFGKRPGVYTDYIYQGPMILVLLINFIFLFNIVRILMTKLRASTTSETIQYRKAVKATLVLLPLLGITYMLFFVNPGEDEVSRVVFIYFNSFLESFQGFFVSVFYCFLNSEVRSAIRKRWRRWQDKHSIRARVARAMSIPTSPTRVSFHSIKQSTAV
Assay: CRF1 Receptor Binding Assay (rat brain membranes, 125I-ovine-CRF)
Settings: read-out: Ki, the binding constant to the CRF1 receptor
Experimental: The following is a description of the isolation of rat brain membranes for use in the standard binding assay as well as a description of the binding assay itself. It is based on a modified protocol described by De Souza (De Souza, 1987).
To prepare brain membranes for binding assays, rat frontal cortex is homogenized in 10 mL of ice cold tissue buffer (50 mM HEPES buffer pH 7.0, containing 10 mM MgCl2, 2 mM EGTA, 1 μg/ml aprotinin, 1 μg/ml leupeptin and 1 μg/ml pepstatin). The homogenate is centrifuged at 48,000×g for 10 min. and the resulting pellet rehomogenized in 10 mL of tissue buffer. Following an additional centrifugation at 48,000×g for 10 min., the pellet is resuspended to a protein concentration of 300 μg/mL.
Binding assays are performed in 96 well plates at a final volume of 300 μL. The assays are initiated by the addition of 150 μL membrane suspension to 150 μL of assay buffer containing ^125I-ovine-CRF (final concentration 150 pM) and various concentrations of inhibitors. […] Filters are assessed for radioactivity in a Packard TopCount. Nonspecific binding is determined in the presence of excess (10 μM) α-helical CRF. […]
IC50 values are calculated using standard methods known in the art, such as with the non-linear curve fitting program RS/1 (BBN Software Products Corp., Cambridge, Mass.).

| SMILES | Ki |
| --- | --- |
| CCc1nc(-c2ccc(N(C)C)nc2C)c(CC)nc1N[C@@H]1c2ccccc2C[C@@H]1OC(C)=O [Example 1, (1R,2S)Acetic acid 1-[5-(6-dimethylamino-2-methyl-pyridin-3-yl)-3,6-diethyl-pyrazin-2-ylamino]-indan-2-yl ester] | 19 nM |
| CCO[C@H]1Cc2ccccc2[C@H]1Nc1nc(CC)c(-c2ccc(N(C)C)nc2C)nc1CC [Example 3, (1R,2S)[5-(6-Dimethylamino-2-methyl-pyridin-3-yl)-3,6-diethyl-pyrazin-2-yl]-(2-ethoxy-indan-1-yl)-amine] | 13 nM |
